Patent publication US20230257715A1, “COMPOSITIONS AND METHODS FOR REGULATING ENTEROENDOCRINE CELL DIFFERENTIATION AND USES THEREOF” (The Children's Medical Center Corporation, priority 2020, published 2023)

B1: betacellulin (protein, UniProt P35070 32-111, looked up)
Betacellulin: DGNSTRSPETNGLLCGDPEENCAATTTQSKRKGHFSRCPKQYKHYCIKGRCRFVVAEQTPSCVCDEGYIGARCERVDLFY
modifications: Betacellulin
notes: a ligand of both EGFR and the ErbB4 receptor

Key:
human duodenal enteroids = assay: qPCR analysis of enteroendocrine and lineage markers in enteroids; assay type: cell-based; details: for EE cell marker expression on inclusion in DM: compared with GM and DM without betacellulin or PF, qPCR
Source text: For differentiation, enteroids were passaged and grown in GM for two days, to allow for ISC expansion, after which the organoids were transitioned to tissue-specific differentiation media (DM) with additional small molecules added as described (TABLE 1A and TABLE 1B). Media was changed every two days, with Tubastatin A being removed after the second day of differentiation. Enteroids and rectoids were taken for analysis after 14 days.
Total RNA was purified from individual wells using TRI®Reagent (Sigma) and the Direct-zol™ RNA kit (Zymo Research), following the manufacturer's protocol. RNA concentration was determined using a NanoDrop™ 1000 spectrophotometer (Life Technologies). RNA was treated with DNAse (Promega) and reverse transcribed using the High-Capacity cDNA Reverse Transcription Kit (Life Technologies). Gene expression analysis was then performed by Real Time quantitative PCR (qPCR) using a QuantStudio 6 Flex thermocycler (Life Technologies). Taqman primers from Life Technologies (TABLE 3) were used. 18S transcripts were used as the internal control and data were expressed using the 2^−ddCt method with Ct limit of 40. Fold change, unless otherwise stated, was compared to total RNA derived from adult whole mucosal tissue biopsies.

[1] = literature (Sathyapalan et al. 2010); cited from earlier work
GATA4-NKX2-5 = details: in vitro, literature (Valimaki et al. 2017); cited from earlier work

| Molecule | EE cell marker expression on inclusion in DM (human duodenal enteroids) | EE lineage marker mRNA expression when added to DM (qPCR) (human duodenal enteroids; compared to enteroids grown in G2D12, FIG. 2.1A) | human serum GIP levels [1] | GATA4-NKX2-5 transcriptional activity (GATA4-NKX2-5) |
| --- | --- | --- | --- | --- |
| Nc1ccc(-c2cnc(N)c(-c3ccc(Cl)cc3)c2)cn1 [PF, PF06260933] | increased expression of EE cell markers |  |  |  |
| Cc1c(C(=O)NN2CCCCC2)nn(-c2ccc(Cl)cc2Cl)c1-c1ccc(Cl)cc1 [Rim, rimonabant] |  | induced expression of multiple EE lineage markers (CHGA, NEUROD1, NEUROG3, SST, and GIP) when added to DM, with Rim having a much larger effect | increase human serum GIP levels | increase the activity of GATA4-NKX2-5 transcriptional activity in vitro |
| B1 | increased expression of EE cell markers |  |  |  |
